Literature values as cited in US6685965B1, “PROCESS FOR STABILIZING LEVOGYRE ASCORBIC ACID (LAA), A STABLE AQUEOUS LAA COMPOSITION, A PROCESS FOR PREPARING A STABLE TOPICAL SOLUTION, AN EMULSION, A VITAMIN PRODUCT, AND A METHOD FOR COSMETIC, PHARMACEUTICAL OR NUTRITIONAL TREATMENT” (Industria E Comercio de Cosmeticos Natura LTDA., priority 1997, dated 2004).

Experiments:
human fibroblasts = human fibroblasts in vitro, in the presence of LAA
[1] = system: glucosaminoglycines, components of the extracellular matrix of the dermis; settings: in the presence of LAA

Which results are given for `O=C1OC(C(O)CO)C(O)=C1O` (stereo not shown) [LAA, levogyre ascorbic acid]?
efficiency of mRNA in the translation of the polypeptidic chains of collagen (human fibroblasts): about 2 times; increase in the synthesis of mRNA (collagens of type I and type III) (human fibroblasts): 2 to 3 times; increase in deposition of glucosaminoglycines in the extracellular matrix [1]: 50%; increase in synthesis of glucosaminoglycines [1]: 30 to 90%
